These results are taken from patent US11246854B2, “Ozonides for treating or preventing virus infections” (THE JOHNS HOPKINS UNIVERSITY, priority 2017, dated 2022).

Structures are written as SMILES.

The test system of data set [1] is HCMV in high density and low density HFFs. The settings on record: Roy S., 2015; cited from earlier work.
The test system of the next data set is pp28-luciferase HCMV. Kind of data set: Add-on and removal experiments. The settings on record: luciferase at 72 hpi. It is filed as cell-based, human cytomegalovirus. On the procedure: HFFs were infected with the pp28-luciferase HCMV as described above. At 0, 6, 12, 24, 36 and 48 hpi, the media were replaced by the media containing OZ418 or GCV. For time-of-removal studies, media containing the compounds were removed at 0, 6, 12, 24, 36 and 48 hpi, cells were then washed three times with PBS, and drug-free medium was added. The cells were incubated at 37° C., and luciferase assays were carried out at 72 hpi.

The test system of another data set is non-infected HFFs. The note with it: literature report; cited from earlier work.
Data set [2] concerns pp28-luciferase Towne CMV strain. Nature of the data set: Drug combination with GCV (Bliss model). It is filed as cell-based, human cytomegalovirus. The note with it: FIGS. 4D and E. On the procedure: Drug combinations were performed as previously reported (33). Briefly, 2×10^6 HFFs were seeded in a 96-well plate and infected with the pp28-luciferase Towne CMV strain at MOI=1. First, a dose response curve was generated for each drug individually to determine its EC50. […] Luciferase activity of the combination and each drug individually was quantified at 72 hpi. The Bliss model was used to calculate the effect of each drug combination on pp28-luciferase activity. In this model, drug combination represents the product of two probabilistically independent events as described in the following equation (23):
[formula] Where D is the drug concentration, m is the slope, and EC50 is the effective concentration resulting in 50% virus inhibition. The combined effect of two inhibitors (FU, fractional unaffected) is computed as the product of individual effects of the two inhibitors, FU1 and FU2. If the ratio of observed fold inhibition divided by the expected fold inhibition is greater than 1, the compounds are synergistic. If the ratio is less than 1, the combination is considered antagonistic, and if it equals to 1 the combination is additive.

Data set [3] has as its system pp28 luciferase-recombinant Towne HCMV. The settings on record: in the presence of viral DNA polymerase inhibitors; previously described; cited from earlier work.
For data set [4], the system named is CDK 1, 2, 4, pRb and E2F1 expression. Nature of the data set: Immunoblot of CDKs, pRb and E2F1, HCMV-infected HFFs. It is filed as cell-based, human. As for the experimental part:
Cell lysates were quantified for total protein content using Pierce bicinchoninic acid (BCA) protein assay kit (Thermo-Fisher Scientific, Waltham, Mass.). Equivalent amounts of protein were mixed with an equal volume of sample buffer (125 mM Tris-HCl [pH 6.8], 4% SDS 20% glycerol, 5% β-mercaptoethanol) and boiled at 100° C. for 10 min. Denatured proteins were resolved in Tris-glycine polyacrylamide gels (10% to 12%) and transferred to polyvinylidene difluoride membranes (Bio-Rad Laboratories, Hercules, Calif.) by electroblotting. Membranes were incubated in blocking solution (5% nonfat dry milk/BSA and 0.1% Tween 20 in PBS [PBST]) for 1 h, washed three times with PBST, and incubated primary antibodies diluted in 5% milk or BSA (for pRb) at 4° C. overnight. The membranes were washed with PBST, followed by incubation with horseradish peroxidase (HRP)-conjugated secondary antibodies in 5% milk/BSA for 1 h at room temperature. After three washing steps with PBST, protein bands were visualized by chemiluminescence using SuperSignal West Pico reagent (Pierce Chemical, Rockford, Ill.). […]
In general terms: Immunoblotting shows a protein as a band on a membrane.

A further data set in a line: MTT cell viability assay. It is filed as cell-based. The settings on record: human foreskin fibroblasts. As for the experimental part:
Six ozonizes have been tested for inhibition of HCMV replication and toxicity in human foreskin fibroblasts (Table 1, FIG. 1). The pp28 luciferase-recombinant Towne was used to measure HCMV replication, and an MTT assay—for cell viability.
Cells were seeded in 96-well plates, treated with various concentrations of ozonides and incubated at 37° C. for 3 days. Cell viability was determined by an MTT-based colorimetric assay (Sigma-Aldrich), and performed at the same time points as the antiviral assay.
In general terms: Formazan colour is commonly taken as a measure of viable cells.

The subject of data set [5] is pp28 luciferase-recombinant Towne HCMV. Kind of data set: pp28-luciferase Towne HCMV replication assay in HFFs. It is filed as cell-based, human cytomegalovirus. The note with it: for Selectivity index (SI): CC50/EC50; for EC50: Human betaherpesvirus 5. On the procedure: Six ozonizes have been tested for inhibition of HCMV replication and toxicity in human foreskin fibroblasts (Table 1, FIG. 1). The pp28 luciferase-recombinant Towne was used to measure HCMV replication, and an MTT assay—for cell viability. […] (FIG. 1).
The pp28-luciferase Towne CMV strain was constructed as previously described (31). The recombinant virus expresses luciferase under the control of UL99 (pp28) late promoter 48-72 h post infection (hpi). […] Luciferase activity highly correlates with plaque reduction assay. The Towne CMV (ATCC VR-977) and TB40 strains (ATCC VR-1578) were used for plaque reduction, DNA replication, and cell cycle assays.
HFFs passage 12-16 (ATCC, CRL-2088) were grown in Dulbecco's Modified Eagle Medium (DMEM) containing 10% fetal bovine serum (FBS) (Gibco, Carlsbad, Calif.) in a 5% CO2 incubator at 37° C. and used for infection with pp28-luciferase Towne CMV. HCT116 (Human Colorectal Carcinoma) (ATCC, CCL-247) cells were maintained in DMEM containing 10% fetal bovine serum.
To determine the effect of cell density/cycling on the anti-HCMV activity of ozonides, HFFs were plated at 0.5×10^6, 1×10^6, 2×10^6 or 3×10^6 cells/96 well-plate 24 h prior to infection. Infection was carried out at multiplicity of infection of 1 PFU/cell (MOI=1). Following 90 minute adsorption, media containing virus was removed and replaced by DMEM with 4% FBS (Gibco) containing anti-viral compounds. Infected treated HFFs were collected at 72 hpi and pp28 activity was quantified by a Luciferase Assay Kit (Promega, Madison, Wis.) on GloMaxH-Multi+ Detection System (Promega) according to manufacturer's instructions.

Take `C[C@H]1[C@H](OC(=O)CCC(=O)O)O[C@@H]2O[C@@]3(C)CC[C@H]4[C@H](C)CC[C@@H]1[C@@]24OO3` [AS, Artesunate, reference compound]: the “Cell-density dependence of anti-HCMV activity (reported)” value in data set [1] was “cell-density dependent”. The “Timing of anti-HCMV activity” value in the data set on pp28-luciferase HCMV is “lost anti-HCMV activity when added after 24 h post infection”. In the data set on non-infected HFFs, the “Cell cycle effect (reported)” value is “arrest cell cycle in early G1”. For the same compound, the “Combination effect with GCV against HCMV” value in data set [2] is on record as “synergistic activity with GCV”.

As for `Nc1nc(O)c2ncn(COC(CO)CO)c2n1` [GCV, ganciclovir, reference compound], the “Luciferase expression from UL99 (pp28) late promoter” value in data set [3] is reported as “almost completely inhibited”. For the same compound, the “Expression level of CDKs, pRb and E2F1” value in data set [4] is “did not exhibit any effects on pRb/CDKs expression”.

In turn, `CC(C)(N)CNC(=O)C[C@H]1CC[C@]2(CC1)OO[C@]1(O2)C2CC3CC(C2)CC1C3` [OZ277, arterolane, reference compound] registered a CC50 at 3 days in the data set “MTT cell viability assay” of 33.7 ± 1 µM. Also, in data set [5], the “Selectivity index (SI)” value is listed as 1.98 ± 0.09 and the EC50 was 17.1 ± 1.31 µM.

Turning to `c1cc([C@H]2CC[C@]3(CC2)OO[C@]2(O3)C3CC4CC(C3)CC2C4)ccc1OCCN1CCOCC1` [OZ439, artefenomel], the EC50 in data set [5] was determined as 13.2 ± 1.27 µM.

On to `OC1CCN(CCOc2ccc([C@H]3CC[C@]4(CC3)OO[C@]3(O4)C4CC5CC(C4)CC3C5)cc2)CC1` [OZ513b], for which, in “MTT cell viability assay”, the CC50 at 3 days was found to be 49.4 ± 3.67 µM. Besides, in data set [5], the “Selectivity index (SI)” value stood at 3.14 ± 0.20 and the EC50 came out at 15.7 ± 0.87 µM.

Consider `O=C(O)C1CCN(CCOc2ccc([C@H]3CC[C@]4(CC3)OO[C@]3(O4)C4CC5CC(C4)CC3C5)cc2)CC1` [OZ721], for which half-maximal cytotoxicity in “MTT cell viability assay” (CC50 at 3 days) was put at 45.5 ± 6.82 µM. In data set [5], the “Selectivity index (SI)” value is listed as 7.89 ± 0.35 and the EC50 is 5.75 ± 0.74 µM.

In the case of `O=C(O)P(=O)(O)O` [foscarnet], the “Luciferase expression from UL99 (pp28) late promoter” value in data set [3] is listed as “almost completely inhibited”.

Broadly, the CC50 is the concentration at which the toxic effect on the cells reaches its halfway point. By EC50 is commonly meant the concentration needed to bring the measured effect to its halfway point.
